Reference: US9732087B2, “Diamino-pyridine, pyrimidine, and pyridazine modulators of the histamine H4 receptor” (JANSSEN PHARMACEUTICA NV, priority 2008, dated 2017)
Structures can show the parent of a compound that is named as a salt.

molecular target: human H4 receptor (Homo sapiens (Human), UniProt Q9H3N8); test: Binding assay on recombinant human histamine H4 receptor ([3H]histamine competition, SK-N-MC cell membranes); conditions: membranes harvested with 96 well Brandel system; [3H]histamine 10 nM; average of results; read-out: Brandel Ki
How it was run: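 Membranes from SK-N-MC cells stably or transiently transfected with human H4 receptor, prepared by homogenization and 30,000 g centrifugation in Tris/EDTA. Bound [3H]histamine separated by rapid filtration on PEI-treated GF/C filters, washed with ice-cold Tris/EDTA, counted by scintillation. '>' values denote highest concentration tested.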

Ki [nM]	Compound
1	CN[C@@H]1CCN(c2ccnc(NC3CC4CCC3C4)c2)C1 (stereo partly drawn) [Example 1, Bicyclo[2.2.1]hept-2-yl[4-((3R)-3-methylamino-pyrrolidin-1-yl)-pyridin-2-yl]amine dihydrochloride]
2	CCCCNc1nccc(N2CC[C@@H](NC)C2)n1 [Example 73, Butyl-[4-(3R)-(3-methylamino-pyrrolidin-1-yl)-pyrimidin-2-yl]-amine]

Compound	Ki [nM]
CC(C)CNc1nccc(N2CCN(C)CC2)n1 [Example 31, Isobutyl-[4-(4-methyl-piperazin-1-yl)-pyrimidin-2-yl]-amine]	69

same assay, conditions: membranes harvested with cell harvester; [3H]histamine 10 nM; average of results; read-out: Cell Harvester Ki

Compound	Ki [nM]
c1nnc(NC2CC2)cc1N1CCNCC1 [Example 315, N-Cyclopropyl-5-piperazin-1-ylpyridazin-3-amine]	1920
c1cc(N2CCNCC2)nc(NCC2CCCC2)n1 [Example 187, N-(Cyclopentylmethyl)-4-piperazin-1-ylpyrimidin-2-amine]	71.5
N[C@@H]1CCN(c2ccnc(NCC3CCCO3)n2)C1 (stereo partly drawn) [Example 51, 4-[(R)-3-Aminopyrrolidin-1-yl]-N-(tetrahydrofuran-2-ylmethyl)pyrimidin-2-amine]	123
CCCCNc1nccc(N2CCN(C)CC2)n1 [Example 47, N-Butyl-4-(4-methylpiperazin-1-yl)pyrimidin-2-amine]	33.2
c1nnc(NC2CCCC2)cc1N1C[C@H]2CCN[C@H]2C1 [Example 345, N-Cyclopentyl-5-[(3aR,6aR)-hexahydropyrrolo[3,4-b]pyrrol-5(1H)-yl]pyridazin-3-amine]	1320
c1cc(N2CCNCC2)cc(NC2CCCC2)n1 [Example 16, N-Cyclopentyl-4-piperazin-1-ylpyridin-2-amine]	48.2
CC(C)CNc1cc(N2C[C@H]3CCN[C@H]3C2)cnn1 [Example 318, 5-[(3aR,6aR)-Hexahydropyrrolo[3,4-b]pyrrol-5(1H)-yl]-N-(2-methylpropyl)pyridazin-3-amine]	1240
CNC1CN(c2ccnc(NCC3CCC4CC3C4(C)C)n2)C1 (centres unmarked) [Example 105, N-[(6,6-Dimethylbicyclo[3.1.1]hept-2-yl)methyl]-4-[3-(methylamino)azetidin-1-yl]pyrimidin-2-amine]	165
CNC1CN(c2cnnc(NC3C[C@H]4C[C@@H](C3C)C4(C)C)c2)C1 (stereo partly drawn) [Example 301, 5-[3-(Methylamino)azetidin-1-yl]-N-[(1S,5R)-2,6,6-trimethylbicyclo[3.1.1]hept-3-yl]pyridazin-3-amine]	202
CCCCNc1nccc(N2CC[C@@H](N)C2)n1 [Example 46, 4-[(3R)-3-Aminopyrrolidin-1-yl]-N-butylpyrimidin-2-amine]	8.4
CC1C(Nc2cc(N3CCNCC3)ccn2)C[C@H]2C[C@@H]1C2(C)C (stereo partly drawn) [Example 269, 4-Piperazin-1-yl-N-[(1S,5R)-2,6,6-trimethylbicyclo[3.1.1]hept-3-yl]pyridine-2-amine]	2100
CC(C)(CO)CNc1nccc(N2CC(N)C2)n1 [Example 151, 3-{[4-(3-Aminoazetidin-1-yl)pyrimidin-2-yl]amino}-2,2-dimethylpropan-1-ol]	1460
NC1CN(c2ccnc(NC3CC3)n2)C1 [Example 91, 4-(3-Aminoazetidin-1-yl)-N-cyclopropylpyrimidin-2-amine]	182
CN1CCN(c2ccnc(NC[C@]34C[C@H]5C[C@H](C[C@H](C5)C3)C4)c2)CC1 [Example 255, Adamantan-1-ylmethyl-[4-(4-methyl-piperazin-1-yl)-pyridin-2-yl]amine]	1940
CN1CCN(c2ccnc(NCCCO)n2)CC1 [Example 161, 3-{[4-(4-Methylpiperazin-1-yl)pyrimidin-2-yl]amino}propan-1-ol]	1300
CN(CCN)c1cnnc(NCC2CCCC2)c1 [Example 303, N^5-(2-Aminoethyl)-N^3-(cyclopentylmethyl)-N^5-methylpyridazine-3,5-diamine]	417
Fc1ccc(CNc2cc(N3CCNCC3)ccn2)cc1 [Example 40, N-(4-Fluorobenzyl)-4-piperazin-1-ylpyridin-2-amine]	790

Compound	Ki [nM]
CC(C)(C)CNc1cc(N2CCNCC2)cnn1 [Example 357, N-(2,2-Dimethylpropyl)-5-piperazin-1-ylpyridazin-3-amine]	4370
c1ccc(CNc2nccc(N3CCNCC3)n2)nc1 [Example 157, 4-Piperazin-1-yl-N-(pyridin-2-ylmethyl)pyrimidin-2-amine]	2140
CN1CCN(c2ccnc(NCC(C)(C)O)n2)CC1 [Example 120]	303
N[C@@H]1CCN(c2ccnc(NC3CCCCC3)n2)C1 [Example 181, 4-[(3R)-3-Aminopyrrolidin-1-yl]-N-cyclohexylpyrimidin-2-amine]	9.07
COCCNc1nccc(N2CCN(C)CC2)n1 [Example 60, N-(2-Methoxyethyl)-4-(4-methylpiperazin-1-yl)pyrimidin-2-amine]	342
CC(C)Nc1nccc(N2CC[C@@H](N)C2)n1 [Example 52, 4-[(3R)-3-Aminopyrrolidin-1-yl]-N-(1-methylethyl)pyrimidin-2-amine]	33.4
NC1CN(c2cnnc(NC3CC3)c2)C1 [Example 333, 5-(3-Aminoazetidin-1-yl)-N-cyclopropylpyridazin-3-amine]	> 10000
CN1CCN(c2ccnc(NCc3ccccn3)c2)CC1 [Example 244, 4-(4-Methylpiperazin-1-yl)-N-(pyridin-2-ylmethyl)pyridin-2-amine]	3880
N[C@@H]1CCN(c2cnnc(NC3CCCCC3)c2)C1 [Example 365, 5-[(3R)-3-Aminopyrrolidin-1-yl]-N-cyclohexylpyridazin-3-amine]	508
c1ccc(CNc2nccc(N3CCNCC3)n2)cc1 [Example 131, N-Benzyl-4-piperazin-1-ylpyrimidin-2-amine]	820
N[C@@H]1CCN(c2ccnc(NCc3ccc(F)cc3)n2)C1 [Example 57, 4-[(3R)-3-Aminopyrrolidin-1-yl]-N-(4-fluorobenzyl)pyrimidin-2-amine]	140
CN1CCN(c2ccnc(NCC3CCCO3)n2)CC1 (centres unmarked) [Example 50, 4-(4-Methylpiperazin-1-yl)-N-(tetrahydrofuran-2-ylmethyl)pyrimidin-2-amine]	33.2
N[C@@H]1CCN(c2cnnc(NCc3ccc(F)cc3)c2)C1 [Example 342, 5-[(3R)-3-Aminopyrrolidin-1-yl]-N-(4-fluorobenzyl)pyridazin-3-amine]	936
N[C@@H]1CCN(c2ccnc(NCC3CC3)n2)C1 [Example 24]	3.32
CC(C)CNc1nccc(N2CCN(C)CC2)n1 [Example 31, Isobutyl-[4-(4-methyl-piperazin-1-yl)-pyrimidin-2-yl]-amine]	76.9
N[C@@H]1CCN(c2ccnc(NCCCO)n2)C1 [Example 154, 3-({4-[(3R)-3-Aminopyrrolidin-1-yl]pyrimidin-2-yl}amino)propan-1-ol]	204

Other lines, results leading:

Ki [nM]	Compound
835	CN[C@@H]1CCN(c2cnnc(NCc3ccoc3)c2)C1 [Example 387, N-(Furan-3-ylmethyl)-5-[(3R)-3-(methylamino)pyrrolidin-1-yl]pyridazin-3-amine]
35.1	CN[C@@H]1CCN(c2ccnc(NCC3CCCO3)c2)C1 (stereo partly drawn) [Example 6, 4-[(3R)-3-(Methylamino)pyrrolidin-1-yl]-N-[tetrahydrofuran-2-ylmethyl]pyridin-2-amine dihydrochloride]
0.5	CN[C@@H]1CCN(c2ccnc(NC3CC4CCC3C4)c2)C1 (stereo partly drawn) [Example 1, Bicyclo[2.2.1]hept-2-yl[4-((3R)-3-methylamino-pyrrolidin-1-yl)-pyridin-2-yl]amine dihydrochloride]
395	CN[C@H]1CCN(c2ccnc(NCc3ccc(F)cc3)c2)C1 [Example 246, N-(4-Fluorobenzyl)-4-[(3S)-3-(methylamino)pyrrolidin-1-yl]pyridin-2-amine]
4.33	CN[C@@H]1CCN(c2ccnc(NCC3CC4CCC3C4)c2)C1 (stereo partly drawn) [Example 253, N-(Bicyclo[2.21]hept-2-ylmethyl)-4-[(3R)-3-(methylamino)pyrrolidin-1-yl]pyridin-2-amine]
215	CN[C@H]1CCN(c2ccnc(NC(C)(C)C)c2)C1 [Example 233, N-tert-Butyl-4-[(3S)-3-(methylamino)pyrrolidin-1-yl]pyridin-2-amine]
0.9	CN[C@@H]1CCN(c2ccnc(Nc3ccccc3)c2)C1 [Example 33, 4-[(3R)-3-(Methylamino)pyrrolidin-1-yl]-N-phenylpyridin-2-amine]
> 10000	CN[C@H]1CCN(c2ccnc(NCC(C)(C)O)c2)C1 [Example 242, 2-Methyl-1-({4-[(3S)-3-(methylamino)pyrrolidin-1 yl]pyridin-2-yl}amino)propan-2-ol]
247	N[C@H]1CCN(c2ccnc(NC3CCCC3)c2)C1 [Example 268, 4-[(3S)-3-Aminopyrrolidin-1-yl]-N-cyclopentylpyridin-2-amine]
296	CN[C@H]1CCN(c2ccnc(NC34CC5CC(CC(C5)C3)C4)c2)C1 [Example 210, Adamantan-1-yl-[4-(3S)-(3-methylamino-pyrrolidin-1-yl)-pyridin-2-yl]-amine]
18.1	CNC1CN(c2ccnc(NCC(C)C)c2)C1 [Example 34, 4-[3-(Methylamino)azetidin-1-yl]-N-(2-methylpropyl)pyridin-2-amine]
> 10000	CN[C@@H]1CCN(c2cnnc(NCCCO)c2)C1 [Example 390, 3-({5-[(3R)-3-(Methylamino)pyrrolidin-1-yl]pyridazin-3-yl}amino)propan-1-ol]
0.7	CCCCNc1nccc(N2CC[C@@H](NC)C2)n1 [Example 73, Butyl-[4-(3R)-(3-methylamino-pyrrolidin-1-yl)-pyrimidin-2-yl]-amine]
3.89	CNC1CN(c2ccnc(NCC(C)C)n2)C1 [Example 171, 4-[3-(Methylamino)azetidin-1-yl]-N-(2-methylpropyl)pyrimidin-2-amine]
224	CNC1CN(c2cnnc(NCC3CCCC3)c2)C1 [Example 370, N-(Cyclopentylmethyl)-5-[3-(methylamino)azetidin-1-yl]pyridazin-3-amine]
723	CN1CCN(c2ccnc(NC3CCOCC3)c2)CC1 [Example 223, 4-(4-Methylpiperazin-1-yl)-N-(tetrahydro-2H-pyran-4-yl)pyridin-2-amine]
3.53	N[C@@H]1CCN(c2ccnc(NC3CC4CCC3C4)c2)C1 (stereo partly drawn) [Example 270, 4-[(3R)-3-Aminopyrrolidin-1-yl]-N-bicyclo[2.2.1]hept-2-ylpyridin-2-amine]
